Measured values taken from paper PMC3677961 (Chemical biology & drug design, 2008).
Blank lines part the entries; values can stand above or below the molecule they belong to.

Experiments:
mammalian tubulin = conditions: read-out: IC50 against mammalian tubulin; cited from earlier work
[1] = phase I and phase II clinical trials; cited from earlier work
[2] = target: T1, colchicine site of mammalian tubulin (Sus scrofa, UniProt P02550+P02554); conditions: cited from earlier work
[3] = system: L. donovani axenic amastigotes; conditions: cited from earlier work
T. b. brucei = conditions: cited from earlier work
[4] = system: L. donovani axenic amastigotes; format: cell-based; conditions: Leishmania donovani, read-out: IC50 versus L. donovani axenic amastigotes
[5] = target: T1, colchicine site of mammalian tubulin; experiment: Competition with MTPT for the colchicine site; format: binding; conditions: 5 μM mammalian tubulin, 5 μM MTPT
LNCaP = experiment: SRB growth inhibition assay, LNCaP prostate cancer cell line; format: cell-based; conditions: Homo sapiens, 96 h, read-out: Cancer cell line IC50, LNCaP
PC3 = experiment: SRB growth inhibition assay, PC-3 prostate cancer cell line; format: cell-based; conditions: Homo sapiens, PC-3, 96 h, read-out: Cancer cell line IC50, PC3
MCF7 = experiment: SRB growth inhibition assay, MCF-7 breast cancer cell line; format: cell-based; conditions: Homo sapiens, MCF7, 96 h, read-out: Cancer cell line IC50, MCF7
PPC1 = experiment: SRB growth inhibition assay, PPC-1 prostate cancer cell line; format: cell-based; conditions: Homo sapiens, PPC-1, 96 h, read-out: Cancer cell line IC50, PPC1
HT29 = experiment: SRB growth inhibition assay, HT-29 colon cancer cell line; format: cell-based; conditions: Homo sapiens, HT-29, 96 h, read-out: Cancer cell line IC50, HT29
TSU-Pr1 = experiment: SRB growth inhibition assay, TSU-Pr1 bladder cancer cell line; format: cell-based; conditions: Homo sapiens, TSU-Pr1, 96 h, read-out: Cancer cell line IC50, TSU-Pr1
[6] = cited from earlier work
Vero cells = experiment: Vero cell cytotoxicity; format: cell-based, African green monkey; conditions: Chlorocebus sabaeus, read-out: IC50 versus Vero Cells

SMILES: COc1ccc(S(=O)(=O)Nc2cccnc2Nc2ccc(O)cc2)cc1 [Compound 28]
IC50 (mammalian tubulin): 2200 nM | Oral bioavailability [1]: orally bioavailable | Binding site on mammalian tubulin [2]: bind to the colchicine site

SMILES: CCCN(CCC)c1c([N+](=O)[O-])cc(S(=O)(=O)Nc2ccccc2)cc1[N+](=O)[O-] [Compound 2, N1-phenyl-3,5-dinitro-N4,N4-di-n-propylsulfanilamide]
Activity against Leishmania donovani axenic amastigotes (in words) [3]: low micromolar activity | Activity against Trypanosoma brucei bloodstream forms (in words) (T. b. brucei): mid-nanomolar activity

IC50 [4]: 3200 ± 1500 nM
SMILES: N=C(N)c1ccc(OCCCCCOc2ccc(C(=N)N)cc2)cc1 [Pentamidine]

SMILES: COc1ccc(CCc2cc(OC)c(OC)c(OC)c2)cc1O [Dihydrocombetastatin A4, dihydrocombretastatin A4]
Inhibition (%) of MTPT binding in presence of competitors ([5]; 2 μM competitor): 30 ± 1% | Inhibition (%) of MTPT binding in presence of competitors ([5]; 20 μM competitor): 69 ± 2% | Inhibition (%) of MTPT binding in presence of competitors ([5]; 50 μM competitor): 74 ± 2%

SMILES: COc1ccc(NS(=O)(=O)c2c(F)c(F)c(F)c(F)c2F)cc1NC(N)=O [Compound 30]
IC50 (mammalian tubulin): 2100 nM

IC50 (LNCaP): 3.4 ± 0.9 nM | IC50 (PC3): 1.4 ± 0.3 nM | IC50 (MCF7): 1.3 ± 0.4 nM | IC50 (PPC1): 1 ± 0.4 nM | IC50 (HT29): 2.4 ± 0.2 nM | IC50 (TSU-Pr1): 1.6 ± 0.08 nM
SMILES: CC[C@]1(O)C[C@@H]2CN(CCc3c([nH]c4ccccc34)[C@@](C(=O)OC)(c3cc4c(cc3OC)N(C)[C@H]3[C@@](O)(C(=O)OC)[C@H](OC(C)=O)[C@]5(CC)C=CCN6CC[C@]43[C@@H]65)C2)C1 [Vinblastine]

SMILES: COc1ccc(NS(=O)(=O)c2c(F)c(F)c(F)c(F)c2F)cc1F [Compound 29]
IC50 (mammalian tubulin): ~2000 nM | Binding site on mammalian tubulin [2]: bind to the colchicine site | Toxicity in phase II clinical trials [6]: low levels of toxicity

SMILES: COc1cc([C@@H]2c3cc4c(cc3[C@H](O)[C@H]3COC(=O)[C@H]23)OCO4)cc(OC)c1OC [Podophyllotoxin]
IC50 (Vero cells): 50 ± 30 nM
